Measured values as given in paper PMC12613816, “Discovery of Novel Isoxazole-Based Small-Molecule Toll-Like Receptor 8 Antagonists” (Journal of Medicinal Chemistry, 2025).

Legend:
THP-1 macrophages = experiment: Cell viability (MTT) in THP-1 macrophages; format: cell-based, human; settings: 24 h, up to 100 μM
Protocol: Effects on cell viability were assessed by the MTT assay. […] Subsequently, 25 μL of MTT (3-(4,5-dimethylthiazol-2-yl)-2,5-diphenyltetrazolium bromide, 5 mg/mL) was added and incubated for 4 h at 37 °C. After the supernatants were removed, DMSO (4720.1, Carl Roth, Karlsruhe, Germany) was added and absorption at 540 nm was measured. Viability of the untreated cells was defined as 100%. DMSO (10% (v/v); A994.1, Carl Roth, Karlsruhe, Germany) served as a positive control. page 9: Figure S8. […] (A) THP-1 Macrophages were incubated with increasing concentrations of 10 and 12 for 24 h. Cell viability was analyzed using the MTT assay, and normalized to non-stimulated cells (vehicle control). DMSO (10%, v/v) was used as the cytotoxic control. Mean + SEM (n=3). (B) PBMCs

PBMCs = experiment: Cell viability (LDH release) in PBMCs; format: cell-based, human; settings: 24 h, up to 100 μM
Protocol: In selected experiments, LDH assay was performed according to the manufacturer’s instructions (Thermo fisher Scientific, Darmstadt, Germany). The percentage of LDH release was calculated compared to the 100% cell lysis control.
(A) THP-1 Macrophages were incubated with increasing concentrations of 10 and 12 for 24 h. Cell viability was analyzed using the MTT assay, and normalized to non-stimulated cells (vehicle control). DMSO (10%, v/v) was used as the cytotoxic control. Mean + SEM (n=3). (B) PBMCs were incubated with 0.6 µM TL8-506 or increasing concentrations of 10 and 12 for 24 h. LDH […]
maximum LDH release. Mean + SEM (n=3-4).

[1] = test system: TNF and IL1B mRNA expression; experiment: TNF and IL1B mRNA expression (qRT-PCR) in TL8-506-stimulated THP-1 macrophages; format: cell-based, human; settings: 10 μM, TL8-506 (6 μM) 1 h
TLR2 or TLR4 = experiment: TNF release in THP-1 macrophages stimulated with TLR2 or TLR4 agonists (Pam3CSK4, Pam2CSK4, LPS); format: cell-based, human; settings: 10 μM compound, 24 h
Text: Mean ± SEM (n = 3). […] Mean + SEM (n = 4).

IL-1β release = IL-1β release after TLR8 priming and NLRP3 activation in THP-1 macrophages; format: cell-based, human; settings: 10 μM, TL8-506 priming, nigericin or ATP
Text: (§1) Mean + SEM (n = 3). […] Bar graphs show mean + SEM (n = 3). […] Mean + SEM (n = 4). […] Whole-cell lysates were used for WB. […] Mean + SEM (n = 4). […] Mean + SEM (n = 4). […] Mean ± SEM (n = 3).

p-NF-κB p65, IκBα = experiment: Western blot of NF-κB pathway proteins in TL8-506-stimulated THP-1 macrophages; format: cell-based, human; settings: 10 μM, TL8-506 (0.6 μM) 15 min
Text: as §1
Twenty-five μg protein per lane was separated on a 10% TGX Stain-Free FastCast acrylamide gel (1610183, Bio-Rad, Feldkirchen, Germany) containing TEMED (2367, Carl Roth, Karlsruhe, Germany) and ammonium persulfate (A3678, Sigma-Aldrich, Taufkirchen, Germany) using MiniPROTEAN electrophoresis system (Bio-Rad). Gels were blotted on low fluorescence polyvinylidene difluoride membranes (Immobilon-FL PVDF low fluorescence; 05317, Merck, Darmstadt, Germany) using the Trans-Blot Turbo System (Bio-Rad, Feldkirchen, Germany). Membranes were blocked using 5% milk (T145.2, Carl Roth, Karlsruhe, Germany) in TBS-T buffer consisting of TRIS HCl (T3253, Sigma-Aldrich, Taufkirchen, Germany), NaCl (27810.295, VWR, Darmstadt, Germany), and Tween 20 (9127.1, Carl Roth, Karlsruhe, Germany). […] Afterward, they were washed three times with TBS-T and incubated with either rabbit anti-IgG HRP conjugated antibody (no. 7074) or mouse anti-IgG HRP conjugated antibody (no. 7076), all from Cell Signaling Technology (CST, Leiden, The Netherlands), for one h at RT. […] Values of protein expression were analyzed by densitometry and normalized to total protein levels using Image lab 6.1 Bio-Rad, Feldkirchen, Germany.

[2] = test system: TLR2/1, TLR2/6, TLR3, TLR4, TLR5, TLR7, TLR9; experiment: TLR specificity in hTLR-HEK293 reporter cells (NF-κB SEAP); format: cell-based, human; settings: 10 μM compound
Protocol: as §1
HEK-Blue cells (4 × 10^4 cells/well) and THP-1 macrophages (4 × 10^4 cells/well, 4 × 10^5 cells/well and 8 × 10^5 cells/well) were seeded in 96-well plates, 24-well plates, or 6-well plates (PS, Sarsted, Germany), respectively. For stimulation experiments, cells were washed with phosphate-buffered saline (PBS, Sigma-Aldrich) and media was replaced with OptiMEM (Thermo Fisher Scientific, Darmstadt, Germany). […] The following TLR ligands were used: Pam2CSK4, Pam3CSK4, poly(I:C) (HMW), LPS from Escherichia coli O111:B4 (LPS-EB Ultrapure), flagellin from Bacillus subtilis (flagellin-BS Ultrapure), CL307, CL075, R848, TL8-506, ODN2006 (all from InvivoGen, Toulouse, France), and Enpatoran (BIOZOL Diagnostika, Germany).

hTLR7 = target: T1, hTLR7 (Homo sapiens, UniProt Q9NYK1); experiment: Inhibition of CL307-stimulated NF-κB activity (SEAP reporter) in hTLR7-HEK293 reporter cells; format: cell-based
T1 construct: host or cells: HEK293 (HEK-Blue hTLR7)
T1 sequence (Q9NYK1 27-1049): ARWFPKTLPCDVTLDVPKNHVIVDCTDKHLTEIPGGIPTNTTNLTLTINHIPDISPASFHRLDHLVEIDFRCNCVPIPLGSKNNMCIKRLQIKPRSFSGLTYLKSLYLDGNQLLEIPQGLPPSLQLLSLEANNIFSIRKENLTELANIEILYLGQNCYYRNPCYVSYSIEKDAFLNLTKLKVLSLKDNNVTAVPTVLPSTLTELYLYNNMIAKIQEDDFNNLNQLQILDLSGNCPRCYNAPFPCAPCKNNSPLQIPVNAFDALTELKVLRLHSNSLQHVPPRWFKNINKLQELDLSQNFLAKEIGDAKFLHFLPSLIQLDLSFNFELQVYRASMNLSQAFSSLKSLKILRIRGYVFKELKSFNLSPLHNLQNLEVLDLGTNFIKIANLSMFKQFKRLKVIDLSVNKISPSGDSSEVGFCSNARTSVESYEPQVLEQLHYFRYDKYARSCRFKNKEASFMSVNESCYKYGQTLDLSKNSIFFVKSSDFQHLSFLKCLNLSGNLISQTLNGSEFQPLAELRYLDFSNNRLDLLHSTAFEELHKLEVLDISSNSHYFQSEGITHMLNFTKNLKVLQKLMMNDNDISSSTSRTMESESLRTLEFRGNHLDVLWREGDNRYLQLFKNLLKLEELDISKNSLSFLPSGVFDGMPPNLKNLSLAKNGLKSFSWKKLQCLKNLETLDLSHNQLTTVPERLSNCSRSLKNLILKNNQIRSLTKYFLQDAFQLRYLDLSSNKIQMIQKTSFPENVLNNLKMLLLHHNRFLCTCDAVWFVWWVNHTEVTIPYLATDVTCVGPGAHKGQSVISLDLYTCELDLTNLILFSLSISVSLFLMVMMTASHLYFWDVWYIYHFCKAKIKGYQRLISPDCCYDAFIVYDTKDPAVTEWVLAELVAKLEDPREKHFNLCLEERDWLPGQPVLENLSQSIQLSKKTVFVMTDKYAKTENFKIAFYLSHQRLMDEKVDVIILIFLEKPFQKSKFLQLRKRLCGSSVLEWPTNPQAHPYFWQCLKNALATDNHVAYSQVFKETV
Text: For stimulation experiments, cells were washed with phosphate-buffered saline (PBS, Sigma-Aldrich) and media was replaced with OptiMEM (Thermo Fisher Scientific, Darmstadt, Germany). […] The following TLR ligands were used: Pam2CSK4, Pam3CSK4, poly(I:C) (HMW), LPS from Escherichia coli O111:B4 (LPS-EB Ultrapure), flagellin from Bacillus subtilis (flagellin-BS Ultrapure), CL307, CL075, R848, TL8-506, ODN2006 (all from InvivoGen, Toulouse, France), and Enpatoran (BIOZOL Diagnostika, Germany).

TLR8 [3] = target: T2, TLR8 (Homo sapiens, UniProt Q9NR97); experiment: Inhibition of TLR8 agonist-stimulated TNF release (ELISA) in THP-1 macrophages
T2 sequence (Q9NR97 27-1041): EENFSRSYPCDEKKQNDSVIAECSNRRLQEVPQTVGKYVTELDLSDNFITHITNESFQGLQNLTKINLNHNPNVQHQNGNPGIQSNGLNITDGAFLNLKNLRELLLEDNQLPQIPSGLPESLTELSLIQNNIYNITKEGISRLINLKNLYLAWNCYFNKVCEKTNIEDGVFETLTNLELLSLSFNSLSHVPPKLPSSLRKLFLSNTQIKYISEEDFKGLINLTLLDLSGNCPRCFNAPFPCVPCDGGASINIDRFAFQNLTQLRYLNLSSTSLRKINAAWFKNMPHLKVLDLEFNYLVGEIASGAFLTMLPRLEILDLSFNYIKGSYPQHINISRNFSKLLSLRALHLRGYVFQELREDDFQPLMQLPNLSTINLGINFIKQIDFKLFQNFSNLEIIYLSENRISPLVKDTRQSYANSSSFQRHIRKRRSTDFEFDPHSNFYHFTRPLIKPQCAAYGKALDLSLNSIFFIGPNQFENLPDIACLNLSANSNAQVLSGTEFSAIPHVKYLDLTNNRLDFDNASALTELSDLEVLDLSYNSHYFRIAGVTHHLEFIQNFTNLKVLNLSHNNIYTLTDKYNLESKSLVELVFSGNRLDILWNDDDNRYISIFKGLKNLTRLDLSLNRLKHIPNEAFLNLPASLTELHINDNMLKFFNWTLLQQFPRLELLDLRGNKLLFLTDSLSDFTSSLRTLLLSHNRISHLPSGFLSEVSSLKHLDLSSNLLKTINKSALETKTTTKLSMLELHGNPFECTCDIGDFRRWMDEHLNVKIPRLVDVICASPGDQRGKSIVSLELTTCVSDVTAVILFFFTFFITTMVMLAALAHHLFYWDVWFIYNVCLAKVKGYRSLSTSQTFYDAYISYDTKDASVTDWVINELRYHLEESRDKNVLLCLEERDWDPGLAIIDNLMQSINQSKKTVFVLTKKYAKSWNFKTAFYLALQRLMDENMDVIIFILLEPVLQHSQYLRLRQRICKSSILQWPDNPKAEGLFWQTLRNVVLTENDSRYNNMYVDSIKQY

TLR8 [4] = target: T2, TLR8; experiment: Inhibition of TL8-506-stimulated TNF release (ELISA) in PBMCs; settings: read-out: IC50 [μM] (95% CI) TNF release PBMCs, 1 h preincubation, TL8-506 (0.6 μM) 4 h
TLR8 [5] = target: T2, TLR8; experiment: Inhibition of TL8-506-stimulated NF-κB activity (SEAP reporter, QuantiBlue) in hTLR8-HEK293 reporter cells; format: cell-based; set-up: host or cells: HEK293 (HEK-Blue hTLR8)
TLR8 [6] = target: T2, TLR8; settings: TL8-506 alone

Row | SMILES | Cell viability THP-1 macrophages (THP-1 macrophages) | Cell viability PBMCs (PBMCs) | mRNA expression levels of TNF and IL1B [1] | TNF responses to TLR2 or TLR4 agonists (TLR2 or TLR4) | IL-1β release (IL-1β release) | IκBα level (p-NF-κB p65, IκBα) | p-NF-κB p65 level (p-NF-κB p65, IκBα) | Activity against other TLRs (NF-κB activation) [2] | Selectivity factor IC50 (TLR7)/ IC50 (TLR8) (hTLR7; hTLR7-HEK293 vs hTLR8-HEK293) | IC50 (hTLR7; read-out: IC50 [μM] (95% CI) hTLR7-HEK293, inhibition of NF-κB activity, 1 h preincubation, CL307 (1.7 µM) 24 h) [µM] | TNF production in response to TLR8 agonists TL8-506 or CL075 (TLR8 [3]; 10 μM compound, THP-1 macrophages, 24 h) | IC50 (TLR8 [3]; read-out: IC50 [μM] (95% CI) TNF release THP-1 macrophages, 1 h preincubation, TL8-506 (0.6 μM) 4 h, ELISA) [µM] | IC50 (TLR8 [4]) [µM] | IC50 (TLR8 [5]) [µM] | inhibition at 10 µM (TLR8 [5]; read-out: % inhibition at 10 µM ± SEM (NF-κB activity), 10 µM compound, TL8-506 (0.6 μM) 24 h, hTLR8-HEK293) [%] | IC50 (TLR8 [5]; read-out: IC50 [μM] (95% CI) hTLR8-HEK293, inhibition of NF-κB activity, 1 h preincubation, TL8-506 (0.6 μM) 24 h) [µM] | ECmax [%] (95% CI) of TL8-506 (TLR8 [6]) | EC50 (TLR8 [6]; read-out: EC50 [µM] (95% CI) of TL8-506)
1 | CCN1CCC(NC(=O)c2ccc(OCc3c(C)noc3C)c(OC)c2)CC1 [Compound 10] | unaffected up to 100 μM | without affecting cell viability up to 100 μM | significantly inhibited | without influencing responses | blocked | increased | reduced | no significant activity against other TLRs | – | – | – | – | – | – | – | – | – | –
2 | COc1cc(C(=O)NCC(c2ccc(C)cc2)N(C)C)ccc1OCc1c(C)noc1C (stereo not drawn) [Compound 12] | unaffected up to 100 μM | without affecting cell viability up to 100 μM | – | without influencing responses | – | – | – | – | >102 | > 50 | selectively inhibited | 0.12 | 1.15 | < 0.5 | 83 ± 15 | 0.5 | – | –
3 | CCOC(=O)C1=Cc2ccc(-c3cccc(C#N)c3)cc2N=C(N)C1 [TL8-506] | – | – | – | – | – | – | – | – | – | – | – | – | – | – | – | – | 97.6 (92.9-104.7) % | 0.19
